These results are taken from patent publication US6338862B1, “Composition and method of use in treating sexual dysfunction using cGMP-specific phosphodiesterase type 5 inhibitors” (priority 2001, dated 2002).

The subject of one experiment is men. Conditions: controlled clinical trials; cited from earlier work.
Experiment [1] relates to isolated human corpus cavernosum. The following applies: cited from earlier work.
Experiment [2] concerns subjects who had been frequent users of Viagra®. Briefly: blinded study in volunteers, subjective evaluation whether an adequate, satisfactory erection was achieved. Type of experiment: in vivo, human. Conditions: oral capsule, out of 12 subjects. How it is done:
In its preferred embodiment, three composition containing sildenafil citrate 12.5 mg, 25 or 50 mg containing the same amounts of L-arginine 200 mg, ginseng 100 mg, folic acid 0.5 mg, vitamin B6 100 mg and vitamin B12 0.75 mg were formulated in a capsule dosage form with suitable inert diluents to hide the identity of the product. […] In a blinded study, the volunteers were given all six products to test on an ad-lib basis. They were informed that the test includes evaluation of two formulations of sildenafil citrate. The volunteers were asked to evaluate the response subjectively whether an adequate, satisfactory erection was achieved. In its preferred embodiment, three composition containing sildenafil citrate 12.5 mg, 25 or 50 mg, and the same amounts of L-arginine 200 mg, ginseng 100 mg, folic acid 0.5 mg, vitamin B6 100 mg and vitamin B12 0.75 mg were formulated in a capsule dosage form with suitable inert diluents to hide the identity of the product. […] In a blinded study, the volunteers were given all six products to test on an ad-lib basis. They were informed that the test includes evaluation of two formulations of sildenafil citrate. At the lowest dose of 12.5 mg, when given alone, only 3 out of 12 subjects reported erection; when given as the composition described, 7 out of 12 subjects reported satisfactory erection. At 25 mg dose 8 out of 12 subjects reported satisfactory erection while 10 subjects reported satisfactory erection at 25 mg dose when given as the composition described. At 50 mg dose the difference was narrowed to 10 subjects reporting erection when given alone and 11 when given as the composition described. It is concluded from this study that using the combination of ingredients as specified in the composition, the required dose of sildenafil to treat sexual dysfunction can be reduced to achieve the same effect as when given alone but at higher does. The most significant advantage appears at lower doses. […]

Structures are written as SMILES.

Regarding `CCCc1nn(C)c2c(=O)[nH]c(-c3cc(S(=O)(=O)N4CCN(C)CC4)ccc3OCC)nc12.O=C(O)CC(O)(CC(=O)O)C(=O)O` [Viagra®, 1-[[3-(6,7-dihydro-1-methyL-7-oxo-3-propyL-1H-pyrazolo[4,3-d]pyrimidin-5-yl)-4-ethoxyphenyl]sulfonyl]-4-methylpiperazine citrate], in the experiment on men, the “proves effective in men” value is on record as 7 out of 10. The direct relaxant effect entry in experiment [1] is “no direct relaxant effect”. Moreover, the “subjects reporting satisfactory erection” value in experiment [2] (12.5 mg sildenafil citrate dose) stood at 3 subjects; in experiment [2] (25 mg sildenafil citrate dose), 8 subjects; in experiment [2] (50 mg sildenafil citrate dose) it was 10 subjects.
